According to BigSolDB 2.1:

Cc1c(OCC(F)(F)F)ccnc1CS(=O)c1nc2ccccc2[nH]1 (stereo not drawn)
solubility (mole fraction)
Settings | 278.15 K | 283.15 K | 288.15 K | 293.15 K | 298.15 K | 303.15 K | 308.15 K | 313.15 K | 318.15 K
in acetone | 0.0174 | 0.0197 | 0.0221 | 0.0256 | 0.0287 | 0.0337 | 0.0398 | 0.0461 | 0.053
in acetonitrile | 0.00324 | 0.00406 | 0.00516 | 0.00642 | 0.00805 | 0.01 | 0.0124 | 0.015 | 0.0186
in ethanol | 0.00976 | 0.0114 | 0.0145 | 0.0179 | 0.0221 | 0.0274 | 0.0327 | 0.0402 | 0.0487
in ethyl acetate | 0.00415 | 0.00512 | 0.00637 | 0.00799 | 0.00962 | 0.0118 | 0.0145 | 0.0175 | 0.0216
in isobutanol | 0.00434 | 0.00534 | 0.00657 | 0.00803 | 0.0098 | 0.012 | 0.0148 | 0.0179 | 0.0218
in isopropanol | 0.00417 | 0.00469 | 0.00569 | 0.00708 | 0.00879 | 0.0109 | 0.0136 | 0.0168 | 0.0204
in methanol | 0.022 | 0.0271 | 0.0331 | 0.0428 | 0.0532 | 0.0653 | 0.0803 | 0.101 | 0.125
in methyl acetate | 0.00633 | 0.00729 | 0.00849 | 0.0105 | 0.0131 | 0.0158 | 0.02 | 0.0245 | 0.03
in n-butanol | 0.00564 | 0.00701 | 0.00832 | 0.0105 | 0.0127 | 0.016 | 0.0196 | 0.0242 | 0.0296
in n-butyl acetate | 0.00168 | 0.00206 | 0.00259 | 0.00329 | 0.00406 | 0.00505 | 0.0063 | 0.00785 | 0.00945
in n-propanol | 0.00803 | 0.00912 | 0.0108 | 0.0132 | 0.0157 | 0.019 | 0.0233 | 0.028 | 0.0335
in n-propyl acetate | 0.00227 | 0.00268 | 0.00342 | 0.00417 | 0.00522 | 0.00654 | 0.00831 | 0.0101 | 0.0127
